Laboratory results published in US6300327A, “Compositions and methods for potentiation of neurotrophin activity” (The University of Southern California, priority 1997, dated 2001).
“Also recorded” adds a separate entry of the source.

Assays:
trkB = test: Cell-free tyrosine phosphorylation of recombinant human trkB expressed in Sf9 insect cells; format: biochemical; conditions: 10 μM K-252b
Protocol: Human trk and trkB were expressed in Sf9 insect cells transfected using a baculovirus system. The trk proteins were immunoprecipitated as described above and the precipitates were incubated with 20 μCi [gamma-^32 P]ATP, 10 mM MnCl2, 20 mM Tris, pH 7.4, for 5 min at 25° C. in the presence of increasing amounts of K-252b or control solution. Phosphorylated proteins were analyzed as described for FIG. 4B. The tyrosine kinase activity of the trk and trkB proteins was activated in the absence of ligand, a common observation for receptor tyrosine kinase produced in the baculovirus system. The trk and trkB proteins were 25% pure as assayed by SDS-PAGE.
K-252b interacts directly with the trk and trkB protein. Human trk and trkB were expressed in Sf9 insect cells transfected using a baculovirus system. trk proteins were immunoprecipitated and the precipitates were incubated with [gamma^32 P]ATP in the presence of increasing amounts of K-252b or control solution.

[1] = molecular target: cGMP-dependent protein kinase; conditions: in vitro assay systems; cited from earlier work
[2] = test system: chick dorsal root ganglia neurons (DRG); test: Survival of dissociated chick DRG neurons (embryonic day 9); format: cell-based
Protocol: DRGs of embryonic day 9 chicks were dissected and dissociated using enzymatic and mechanical procedures as described in the literature [Rosenthal, A. et al., "Primary Structure and Biological Activity of a Novel Human Neurotrophic Factor," Neuron 4:767-773 (1990)]. 1800 neurons were plated per well in 96-well tissue culture plates pretreated with polyornithine (500 μg/ml) and laminin (10 μg/ml). Cells were incubated for 48 hrs with or without growth factors and the indicated concentrations of K-252b. Phase-bright cells with elaborated neurites 5× the diameter of the cell bodies were then counted.
Similar to the findings obtained in primary cultures of brain cholinergic neurons, low concentration of K-252b (50 nM) potentiated the survival promoting action of a maximally effective concentration of NT-3 (FIG. 3). Survival of dissociated chick DRG neurons in presence of rhNGF (100 ng/ml) or rhNT-3 (100 ng/ml) and K-252b is illustrated in FIG. 3; concentrations on the horizontal axis are for K-252b. The columns represent means +SEMs. […] High concentrations of K-252b (10 μM) inhibited the action of NGF on sensory neurons, as found for cholinergic neurons (FIG. 3).

protein kinase C = conditions: in vitro assay systems; cited from earlier work
Cytotoxicity in vitro = format: cell-based
trk = trk tyrosine phosphorylation in PC12 cells (immunoprecipitation, anti-phosphotyrosine immunoblot); format: cell-based
Protocol: To measure the status of trk tyrosine phosphorylation, PC12 cells were lysed and immunoprecipitated with anti-trk serum. The trk proteins were subjected to 7.5% SDS-PAGE and analyzed by immunoblotting with anti-phosphotyrosine antibodies as described in detail in the literature [Kaplan, D. R. et al., "PDGF beta receptor stimulates tyrosine phosphorylation of GAP and association of GAP with a signaling complex," Cell 61:125-133 (1990)]. Tyrosine phosphorylation of cellular proteins was assayed by probing Western blots of lysates of PC12 cells incubated with K-252b and NT-3 or NGF with anti-phosphotyrosine antibodies. Phospholipase C gammal was identified in these blots as described elsewhere [Vetter, M.L. et al., "Nerve growth factor rapidly stimulates tyrosine phosphorylation of phospholipase C-gammal by a kinase activity associated with the product of trk protooncogene," Proc. Natl Acad. Sci. USA 88:5650-5654 (1991)].
Experiments on PC12 cells confirmed observations made on primary neuron cultures. Treatment with K-252b stimulated NT-3 induced neurite outgrowth and trk tyrosine phosphorylation in PC12 cells while inhibiting NGF induced effects. PC12 cells were incubated for 48 hours with K-252b (50 nM) and NT-3 or NGF (50 ng/ml). FIG. 4A illustrates the % cells with neurites after 48 hours incubation. Neurites were scored if they were a length of one cell body or more. PC12 cells were subsequently lysed and immunoprecipitated with anti-trk serum. trk proteins were subjected to SDS-PAGE and analyzed by immunoblotting with anti-phosphotyrosine antibodies (FIG. 4B). Lane 1, NT-3 +K-252b; lane 2, NT-3; lane 3, NGF +K-252b; lane 4, NGF. For FIG. 4C, PC12 cells were incubated for 1 hour in K-252b (50 nM or 10 μM) and with NT-3 or NGF for 5 minutes prior to lysis; other methods were the same as described for FIG. 4B. Lane 1, NT-3+10 μM K-252b; lane 2, NT-3±50 nM K-252b; lane 3, NT-3; lane 4, NGF+10 μM K-252b; lane 5, NGF+50 nM K-252b; lane 6, NGF; lane 7, untreated control.

[3] = test system: protein kinase activity of the platelet-derived growth factor; conditions: cell-free preparations; cited from earlier work

Compound: CC12OC(CC1(O)C(=O)O)n1c3ccccc3c3c4c(c5c6ccccc6n2c5c31)CNC4=O (stereo not shown) [K-252b]
- effect on trkB tyrosine phosphorylation, cell-free system (trkB): completely prevented
- Ki [1]: 10 to 100 nM
- effect on survival mediated by NGF or BDNF ([2]; 50 nM K-252b): failed to influence survival
- number of neurons supported by combination with NT-3 ([2]; 50 nM K-252b + NT-3): identical to that supported by NGF alone
- effect on survival promoting action of NT-3 ([2]; 50 nM K-252b, rhNT-3 100 ng/ml): potentiated
- effect on action of NGF on sensory neurons ([2]; 10 μM K-252b, rhNGF 100 ng/ml): inhibited
- Ki (protein kinase C): 10 to 100 nM
- cytotoxicity (Cytotoxicity in vitro): lacked cytotoxicity; also recorded: non-toxic
- trk tyrosine phosphorylation with NT-3 (trk; 50 nM K-252b + NT-3, 48 hours): clear increase
- effect on NGF-induced trk phosphorylation (trk; 10 μM K-252b, 1 hour, then NGF 5 minutes): partially inhibited
- trk tyrosine phosphorylation with NT-3 (trk; 1 hour K-252b followed by 5 minutes NT-3): greatly enhanced
- trk tyrosine phosphorylation, inhibitor alone without NT-3 (trk; K-252b alone): identical to untreated controls
- inhibition of protein kinase activity of the platelet-derived growth factor [3]: inhibits
